Experimental data published in US20250122218A1, “MODULATORS OF CYSTIC FIBROSIS TRANSMEMBRANE CONDUCTANCE REGULATOR” (Vertex Pharmaceuticals Incorporated, priority 2022, published 2025).
pEC50: −log10 of the molar value.

Biological target: T1, CFTR in F508del/MF-HBE cells (Homo sapiens, UniProt P13569, DEL508-508)
T1 construct: human bronchial epithelial (HBE) cells derived from CF subjects heterozygous for F508del and a minimal function CFTR mutation; endogenous in cells; host or cells: primary human bronchial epithelial cells from CF subjects (F508del/MF-HBE)
Experiment: Ussing chamber assay of CFTR-mediated short-circuit currents (identification of potentiator compounds)
Assay type: cell-based
Conditions: potentiator incubated 18-24 hours at 37° C. in combination with 10 μM corrector, in the presence of 20% human serum, CFTR-mediated ISC
Method in brief: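 Short-circuit current was measured in Ussing chambers at 37° C, Vhold 0 mV, 30 μM apical amiloride. CFTR current was defined as the forskolin (20 μM) response relative to the current remaining after BPO/GlyH-101/inhibitor 172 (20 μM each). Before recording, cells had 18-24 h exposure to test potentiators with 10 μM corrector compound in 20% human serum.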

T1 sequence (P13569 with tags, fused parts or gaps DEL508-508): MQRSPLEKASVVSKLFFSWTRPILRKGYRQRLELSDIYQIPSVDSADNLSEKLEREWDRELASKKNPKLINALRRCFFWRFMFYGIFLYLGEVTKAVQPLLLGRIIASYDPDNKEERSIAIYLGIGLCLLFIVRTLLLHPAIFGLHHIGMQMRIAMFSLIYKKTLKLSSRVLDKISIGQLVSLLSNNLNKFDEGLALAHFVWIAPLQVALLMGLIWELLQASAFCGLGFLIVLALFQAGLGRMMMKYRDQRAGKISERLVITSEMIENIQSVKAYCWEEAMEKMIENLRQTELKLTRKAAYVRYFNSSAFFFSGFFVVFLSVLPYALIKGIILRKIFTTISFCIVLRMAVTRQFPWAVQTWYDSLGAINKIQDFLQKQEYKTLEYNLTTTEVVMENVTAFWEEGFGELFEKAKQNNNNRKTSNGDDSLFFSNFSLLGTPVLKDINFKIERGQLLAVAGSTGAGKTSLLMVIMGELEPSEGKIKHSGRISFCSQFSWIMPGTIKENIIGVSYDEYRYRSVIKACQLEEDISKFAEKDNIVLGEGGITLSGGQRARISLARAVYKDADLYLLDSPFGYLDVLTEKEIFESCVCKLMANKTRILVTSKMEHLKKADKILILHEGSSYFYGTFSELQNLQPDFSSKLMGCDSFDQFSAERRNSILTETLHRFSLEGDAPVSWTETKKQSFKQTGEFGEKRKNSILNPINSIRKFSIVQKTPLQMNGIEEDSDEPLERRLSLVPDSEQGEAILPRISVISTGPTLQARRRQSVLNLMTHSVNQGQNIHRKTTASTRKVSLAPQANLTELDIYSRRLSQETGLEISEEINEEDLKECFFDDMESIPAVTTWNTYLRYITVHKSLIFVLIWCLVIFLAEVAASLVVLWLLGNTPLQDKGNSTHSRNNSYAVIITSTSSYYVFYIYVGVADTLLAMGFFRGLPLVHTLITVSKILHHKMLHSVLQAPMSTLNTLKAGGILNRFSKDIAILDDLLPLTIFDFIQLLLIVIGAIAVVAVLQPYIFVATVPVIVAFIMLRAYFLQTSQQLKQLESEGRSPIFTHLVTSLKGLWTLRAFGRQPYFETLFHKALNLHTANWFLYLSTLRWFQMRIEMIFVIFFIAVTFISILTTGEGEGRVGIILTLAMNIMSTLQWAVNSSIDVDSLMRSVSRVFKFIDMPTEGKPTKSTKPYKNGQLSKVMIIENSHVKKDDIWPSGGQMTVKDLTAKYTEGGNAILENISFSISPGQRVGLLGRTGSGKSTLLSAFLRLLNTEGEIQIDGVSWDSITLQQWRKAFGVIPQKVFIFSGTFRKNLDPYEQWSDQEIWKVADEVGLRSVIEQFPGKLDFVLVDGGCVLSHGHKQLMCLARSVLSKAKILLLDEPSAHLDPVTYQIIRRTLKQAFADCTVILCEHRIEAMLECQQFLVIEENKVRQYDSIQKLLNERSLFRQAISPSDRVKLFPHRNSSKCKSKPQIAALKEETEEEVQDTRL

| SMILES | pEC50 |
| --- | --- |
| Nc1cc(C(F)(F)F)c2nc1-c1nnc(o1)[C@@](O)(C(F)(F)F)CCC(=O)CCCC2(F)F [Compound 43, (6R)-17-amino-13,13-difluoro-6-hydroxy-6,15-bis(trifluoromethyl)-19-oxa-3,4,18-triazatricyclo[12.3.1.12,5]nonadeca-1(18),2,4,14,16-pentaen-9-one] | > 6.30 |
| Nc1cc(C(F)(F)F)c2nc1-c1nnc(o1)C(O)(C(F)(F)F)CCCCCCC2(O)C(F)(F)F (single isomer, unassigned) [Compound 28, 17-amino-6,13,15-tris(trifluoromethyl)-19-oxa-3,4,18-triazatricyclo[12.3.1.12,5]nonadeca-1(18),2,4,14,16-pentaene-6,13-diol] | < 6.00 |
| Cc1cnc(CN2CCCCC[C@](O)(C(F)(F)F)C3=NN=C(O3)c3nc(c(C(F)(F)F)cc3N)C2=O)nc1 [Compound 169, (6R)-17-amino-6-hydroxy-12-[(5-methylpyrimidin-2-yl)methyl]-6,15-bis (trifluoromethyl)-19-oxa-3,4,12,18-tetrazatricyclo [12.3.1.12,5] nonadeca-1(18),2,4,14,1 6-pentaen-13-one] | < 6.00 |
| Cn1cc2c(n1)-c1nc(c(N)cc1C(F)(F)F)-c1nnc(o1)C(O)(C(F)(F)F)CCCCC2 (stereo not shown) [Compound 24, 20-Amino-14-methyl-6,18-bis(trifluoromethyl)-22-oxa-3,4,14,15,21-pentaazatetracyclo[15.3.1.12,5.012,16]docosa-1(21),2,4,12,15,17,19-heptaen-6-ol] | < 6.00 |
| CC1CCCCCCC(O)(C(F)(F)F)C2=NN=C(O2)c2nc1c(C(F)(F)F)cc2N (single isomer, unassigned) [Compound 17, 17-amino-13-methyl-6,15-bis(trifluoromethyl)-19-oxa-3,4,18-triazatricyclo[12.3.1.12,5]nonadeca-1(18),2,4,14,16-pentaen-6-ol] | > 6.30 |
| C[C@H]1C[C@H](c2ccc(CN3CCCCC[C@](O)(C(F)(F)F)C4=NN=C(O4)c4nc(c(C(F)(F)F)cc4N)C3=O)cc2)C1 [Compound 183, (6R)-17-amino-6-hydroxy-12-({4-[trans-3-methylcyclobutyl]phenyl}methyl)-6,15-bis (trifluoromethyl)-19-oxa-3,4,12,18-tetraazatricyclo [12.3.1.12,5] nonadeca-1(18),2,4,14,1 6-pentaen-13-one] | > 6.30 |
| CC(C)(C)ON=C1CCCCCC[C@](O)(C(F)(F)F)C2=NN=C(O2)c2nc1c(C(F)(F)F)cc2N (single isomer, unassigned) [Compound 29] | > 6.30 |
| Nc1cc(C(F)(F)F)c2nc1-c1nnc(o1)[C@@](O)(C(F)(F)F)CCCCCN(CC1CCCCO1)C2=O (mixture of isomers) [Compound 130, (6R)-17-amino-6-hydroxy-12-(tetrahydropyran-2-ylmethyl)-6,15-bis (trifluoromethyl)-19-oxa-3,4,12,18-tetrazatricyclo [12.3.1.12,5] nonadeca-1(18),2,4,14,1 6-pentaen-13-one] | > 6.30 |
| CC(=O)N1CCCCCC(O)(C(F)(F)F)C2=NN=C(O2)c2nc(c(C(F)(F)F)cc2N)C1 (single isomer, unassigned) [Compound 21, 1-[17-amino-6-hydroxy-6,15-bis(trifluoromethyl)-19-oxa-3,4,12,18-tetrazatricyclo[12.3.1.12,5]nonadeca-1(18),2,4,14,16-pentaen-12-yl]ethanone] | < 6.00 |
| C[C@H](c1ccc(F)cc1)N1CCCCC[C@](O)(C(F)(F)F)C2=NN=C(O2)c2nc(c(C(F)(F)F)cc2N)C1=O [Compound 105, (6R)-17-Amino-12-[(1R)-1-(4-fluorophenyl)ethyl]-6-hydroxy-6,15-bis (trifluoromethyl)-19-oxa-3,4,12,18-tetrazatricyclo [12.3.1.12,5] nonadeca-1(18),2,4,14,1 6-pentaen-13-one] | > 6.30 |
| C[C@@H](c1ccc(F)cc1)N1CCCCC[C@](O)(C(F)(F)F)C2=NN=C(O2)c2nc(c(C(F)(F)F)cc2N)C1=O [Compound 104, (6R)-17-Amino-12-[(1S)-1-(4-fluorophenyl)ethyl]-6-hydroxy-6,15-bis (trifluoromethyl)-19-oxa-3,4,12,18-tetrazatricyclo [12.3.1.12,5] nonadeca-1(18),2,4,14,1 6-pentaen-13-one] | > 6.30 |
| Nc1cc(C(F)(F)F)c2nc1-c1nnc(o1)[C@@](O)(C(F)(F)F)CCCCCN(CC1CCOCC1)C2=O [Compound 132, (6R)-17-amino-6-hydroxy-12-(tetrahydropyran-4-ylmethyl)-6,15-bis (trifluoromethyl)-19-oxa-3,4,12,18-tetrazatricyclo [12.3.1.12,5] nonadeca-1(18),2,4,14,1 6-pentaen-13-one] | > 6.30 |
| Nc1cc(C(F)(F)F)c2nc1-c1nnc(o1)[C@@](O)(C(F)(F)F)CCC(F)(F)CCCC2=O [Compound 40, (6R)-17-amino-9,9-difluoro-6-hydroxy-6,15-bis(trifluoromethyl)-19-oxa-3,4,18-triazatricyclo[12.3.1.12,5]nonadeca-1(18),2,4,14,16-pentaen-13-one] | > 6.30 |
| COC1CCCCCCC(O)(C(F)(F)F)C2=NN=C(O2)c2nc1c(C(F)(F)F)cc2N (single isomer, unassigned) [Compound 14, 17-Amino-13-methoxy-6,15-bis(trifluoromethyl)-19-oxa-3,4,18-triazatricyclo[12.3.1.12,5]nonadeca-1(18),2,4,14,16-pentaen-6-ol] | > 6.30 |
| COC1CCCCc2ccc(F)c(c2)C(O)(C(F)(F)F)C2=NN=C(O2)c2nc1c(C(F)(F)F)cc2N (stereo not shown) [Compound 62, 20-Amino-8-fluoro-16-methoxy-6,18-bis(trifluoromethyl)-23-oxa-3,4,21-triazatetracyclo[15.3.1.12,5.17,11]tricosa-1(21),2,4,7(22),8,10,17,19-octaen-6-ol] | > 6.30 |
| Nc1cc(C(F)(F)F)c2nc1-c1nnc(o1)[C@@](O)(C(F)(F)F)CCCCCN(Cc1ccc(C(F)(F)F)cc1)C2=O [Compound 135, (6R)-17-amino-6-hydroxy-6,15-bis (trifluoromethyl)-12-[[4-(trifluoromethyl)phenyl]methyl]-19-oxa-3,4,12,18-tetrazatricyclo [12.3.1.12,5] nonadeca-1(18),2,4,14,1 6-pentaen-13-one] | > 6.30 |

The remaining lines, values ahead:

| pEC50 | SMILES |
| --- | --- |
| > 6.30 | CC(C)(C)CCN1CCCCC[C@](O)(C(F)(F)F)C2=NN=C(O2)c2nc(c(C(F)(F)F)cc2N)C1=O [Compound 213, (6R)-17-amino-12-(3,3-dimethylbutyl)-6-hydroxy-6,15-bis(trifluoromethyl)-19-oxa-3,4,12,18-tetrazatricyclo [12.3.1.12,5] nonadeca-1(18),2,4,14,16-pentaen-13-one] |
| > 6.30 | Nc1cc(C(F)(F)F)c2nc1-c1nnc(o1)[C@@](O)(C(F)(F)F)CCCCCN(Cc1ccc(C3CC3)cc1)C2=O [Compound 217, (6R)-17-amino-12-[(4-cyclopropylphenyl)methyl]-6-hydroxy-6,15-bis(trifluoromethyl)-19-oxa-3,4,12,18-tetrazatricyclo [12.3.1.12,5] nonadeca-1(18),2,4,14,16-pentaen-13-one] |
| > 6.30 | COc1cc(CN2CCCCC[C@](O)(C(F)(F)F)C3=NN=C(O3)c3nc(c(C(F)(F)F)cc3N)C2=O)ccc1C(F)(F)F [Compound 230, (6R)-17-amino-6-hydroxy-12-[[3-methoxy-4-(trifluoromethyl)phenyl]methyl]-6,15-bis(trifluoromethyl)-19-oxa-3,4,12,18-tetrazatricyclo [12.3.1.12,5] nonadeca-1(18),2,4,14,16-pentaen-13-one] |
| > 6.30 | Nc1cc(C(F)(F)F)c2nc1-c1nnc(o1)C(O)(C(F)(F)F)CCCCN(Cc1ccc(OC(F)(F)F)cc1)C2=O (single isomer, unassigned) [Compound 234, 16-amino-6-hydroxy-11-[[4-(trifluoromethoxy)phenyl]methyl]-6,14-bis(trifluoromethyl)-18-oxa-3,4,11,17-tetrazatricyclo [11.3.1.12,5] octadeca-1(17),2,4,13,15-pentaen-12-one] |
| > 6.30 | Nc1cc(C(F)(F)F)c2nc1-c1nnc(o1)[C@@](O)(C(F)(F)F)CCCCCN(Cc1cccc(C34CC(C3)C4)c1)C2=O [Compound 240] |
| > 6.30 | CC(C)CN1CCCCC(O)(C(F)(F)F)C2=NN=C(O2)c2nc(c(C(F)(F)F)cc2N)C1=O (single isomer, unassigned) [Compound 233, 16-amino-6-hydroxy-11-isobutyl-6,14-bis(trifluoromethyl)-18-oxa-3,4,11,17-tetrazatricyclo [11.3.1.12,5] octadeca-1(17),2,4,13,15-pentaen-12-one] |
| > 6.30 | Nc1cc(C(F)(F)F)c2nc1-c1nnc(o1)[C@@](O)(C(F)(F)F)CCCCCN(Cc1ccc(OC(F)F)nc1)C2=O [Compound 268, (6R)-17-amino-12-[[6-(difluoromethoxy)-3-pyridyl]methyl]-6-hydroxy-6,15-bis(trifluoromethyl)-19-oxa-3,4,12,18-tetrazatricyclo [12.3.1.12,5] nonadeca-1(18),2,4,14,16-pentaen-13-one] |
| > 6.30 | Nc1cc(C(F)(F)F)c2nc1-c1nnc(o1)[C@@](O)(C(F)(F)F)CCCCCN([C@H]1CC[C@@H](C(F)(F)F)CC1)C2=O [Compound 208, (6R)-17-amino-6-hydroxy-12-[(1s,4s)-4-(trifluoromethyl)cyclohexyl]-6,15-bis(trifluoromethyl)-19-oxa-3,4,12,18-tetraazatricyclo [12.3.1.12,5] nonadeca-1(18),2,4,14,16-pentaen-13-one] |
| > 6.30 | COC12CCC(N3CCCCC[C@](O)(C(F)(F)F)c4nnc(o4)-c4nc(c(C(F)(F)F)cc4N)C3=O)(CC1)C2 [Compound 211, (6R)-17-amino-6-hydroxy-12-(4-methoxynorbornan-1-yl)-6,15-bis(trifluoromethyl)-19-oxa-3,4,12,18-tetrazatricyclo [12.3.1.12,5] nonadeca-1(18),2,4,14,16-pentaen-13-one] |
